Experimental findings from ChEMBL document CHEMBL1157763, “Structure-activity relationships of fluorinated (E)-3-((6-methylpyridin-2-yl)ethynyl)cyclohex-2-enone-O-methyloxime (ABP688) derivatives and the discovery of a high affinity analogue as a potential candidate for imaging metabotropic glutamate recepors subtype 5 (mGluR5) with positron emission …” (J Med Chem, 2010) are described below.

One may read the Ki as the dissociation constant of the complex between target and ligand, obtained from inhibition or displacement. Broadly, the logP is a log measure of how a compound divides between an organic and an aqueous phase. Broadly, the Kd is the constant that tells how readily two partners part at equilibrium. A high value points to lower affinity.

In data set [1] the target is T1, Metabotropic glutamate receptor 5 (Rattus norvegicus, UniProt P31424). The data set can be described thus: Displacement of [3H]M-MPEP from mGluR5 in Sprague-Dawley rat brain P2 membrane after 45 mins by beta counting. The format is tissue-based. For orientation: Displacement assays read how much labelled ligand stays bound in the presence of the test substance.
For data set [2], the target named is Metabotropic glutamate receptor 5 (Rattus norvegicus) (UniProt P31424). The data set can be described thus: Binding affinity to mGluR5 ligand binding site 2 in Sprague-Dawley rat brain P2 membrane assessed per mg of protein after 45 mins by gamma counting. The format is tissue-based. The settings on record: tested as the 18F-labelled form.
Data set [3] shares this target. The data set can be described thus: Binding affinity to mGluR5 ligand binding site 1 in Sprague-Dawley rat brain P2 membrane assessed per mg of protein after 45 mins by gamma counting. The format is tissue-based. To be noted: tested as the 18F-labelled form.
Data set [4] in a line: Lipophilicity, log P after 15 mins by shake-flask method. The format is physicochemical. To be noted: octanol/water.
The target of data set [5] is T1, Metabotropic glutamate receptor 5. The experiment in a line: Binding affinity to mGluR5 ligand binding site 2 in Sprague-Dawley rat brain P2 membrane after 45 mins by gamma counting. The format is tissue-based.
Data set [6] has the same target. The data set can be described thus: Binding affinity to mGluR5 ligand binding site 1 in Sprague-Dawley rat brain P2 membrane after 45 mins by gamma counting. The format is tissue-based.

T1 sequence (P31424 whole entry): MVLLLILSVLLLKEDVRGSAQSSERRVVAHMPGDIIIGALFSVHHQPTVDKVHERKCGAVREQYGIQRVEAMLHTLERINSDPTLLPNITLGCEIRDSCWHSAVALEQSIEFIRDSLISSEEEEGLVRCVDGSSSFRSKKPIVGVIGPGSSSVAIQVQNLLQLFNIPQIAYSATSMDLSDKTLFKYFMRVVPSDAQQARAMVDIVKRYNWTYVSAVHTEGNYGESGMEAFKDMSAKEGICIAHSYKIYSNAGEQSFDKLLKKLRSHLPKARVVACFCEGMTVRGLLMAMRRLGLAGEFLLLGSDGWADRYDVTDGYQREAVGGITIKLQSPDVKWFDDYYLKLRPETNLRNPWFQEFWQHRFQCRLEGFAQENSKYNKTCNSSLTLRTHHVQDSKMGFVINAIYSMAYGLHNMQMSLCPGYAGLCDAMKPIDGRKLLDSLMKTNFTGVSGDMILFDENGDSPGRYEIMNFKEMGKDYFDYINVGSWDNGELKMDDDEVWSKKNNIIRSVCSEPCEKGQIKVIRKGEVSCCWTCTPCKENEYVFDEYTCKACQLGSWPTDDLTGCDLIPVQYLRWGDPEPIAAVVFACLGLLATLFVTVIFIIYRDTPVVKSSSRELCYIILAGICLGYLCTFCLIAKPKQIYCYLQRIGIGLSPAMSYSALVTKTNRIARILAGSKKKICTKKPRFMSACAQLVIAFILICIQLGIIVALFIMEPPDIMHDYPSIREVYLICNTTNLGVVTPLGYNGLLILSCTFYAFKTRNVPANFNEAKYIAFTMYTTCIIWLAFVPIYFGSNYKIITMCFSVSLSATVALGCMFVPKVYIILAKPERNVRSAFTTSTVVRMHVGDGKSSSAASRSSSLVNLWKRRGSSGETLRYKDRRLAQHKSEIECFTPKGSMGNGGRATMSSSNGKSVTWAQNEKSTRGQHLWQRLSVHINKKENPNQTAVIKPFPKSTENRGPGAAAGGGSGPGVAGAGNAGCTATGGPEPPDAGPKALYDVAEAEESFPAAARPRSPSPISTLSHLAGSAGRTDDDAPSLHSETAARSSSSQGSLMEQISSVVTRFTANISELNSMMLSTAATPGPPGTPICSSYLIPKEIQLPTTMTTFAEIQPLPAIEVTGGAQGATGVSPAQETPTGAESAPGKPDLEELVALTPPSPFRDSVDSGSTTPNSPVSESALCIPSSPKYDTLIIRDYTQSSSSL
Chain of Metabotropic glutamate receptor 5 (Rattus norvegicus) (P31424 21-1203 limits assumed): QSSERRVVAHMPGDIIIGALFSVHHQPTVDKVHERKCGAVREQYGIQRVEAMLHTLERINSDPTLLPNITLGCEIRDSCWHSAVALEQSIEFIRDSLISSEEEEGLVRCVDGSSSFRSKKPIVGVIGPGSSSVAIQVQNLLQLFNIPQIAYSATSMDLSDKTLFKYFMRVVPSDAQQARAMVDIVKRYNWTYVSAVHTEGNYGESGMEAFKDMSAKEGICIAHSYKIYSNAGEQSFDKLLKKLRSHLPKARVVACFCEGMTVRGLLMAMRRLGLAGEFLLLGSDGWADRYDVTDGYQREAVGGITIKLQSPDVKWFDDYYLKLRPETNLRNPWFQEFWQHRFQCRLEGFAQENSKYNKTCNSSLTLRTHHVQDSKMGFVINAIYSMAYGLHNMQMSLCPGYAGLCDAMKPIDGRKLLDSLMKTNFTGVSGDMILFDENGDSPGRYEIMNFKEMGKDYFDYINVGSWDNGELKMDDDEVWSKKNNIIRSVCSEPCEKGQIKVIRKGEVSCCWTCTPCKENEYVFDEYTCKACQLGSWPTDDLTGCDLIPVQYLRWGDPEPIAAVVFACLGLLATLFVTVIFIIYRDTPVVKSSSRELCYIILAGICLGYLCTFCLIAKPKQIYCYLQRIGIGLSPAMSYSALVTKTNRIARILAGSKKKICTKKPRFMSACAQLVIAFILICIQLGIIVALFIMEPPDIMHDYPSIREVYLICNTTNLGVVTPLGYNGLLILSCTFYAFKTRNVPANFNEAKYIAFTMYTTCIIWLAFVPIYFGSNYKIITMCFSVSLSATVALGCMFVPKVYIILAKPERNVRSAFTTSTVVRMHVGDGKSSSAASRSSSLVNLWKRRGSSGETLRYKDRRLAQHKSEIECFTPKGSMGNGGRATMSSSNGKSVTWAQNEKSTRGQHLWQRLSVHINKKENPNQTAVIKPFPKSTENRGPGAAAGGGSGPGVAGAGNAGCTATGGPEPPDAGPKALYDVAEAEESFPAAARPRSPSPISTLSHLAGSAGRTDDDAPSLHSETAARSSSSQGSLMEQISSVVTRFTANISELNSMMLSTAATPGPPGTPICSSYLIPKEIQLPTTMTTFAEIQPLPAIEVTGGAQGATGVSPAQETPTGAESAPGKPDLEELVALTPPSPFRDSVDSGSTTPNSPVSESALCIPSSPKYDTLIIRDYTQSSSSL

`FCCOCCO/N=C1/C=C(C#Cc2ccccn2)CCC1` gave a Ki in data set [1] of 3.8 nM. Besides, the values for the Bmax in data set [2] and in data set [3] were 4 pmol and 470 fmol, respectively. The logP at 0.25 h in data set [4] came to 1.7.

The compound `CO/N=C1/C=C(C#Cc2ccncc2)CCC1` had a Ki in data set [1] of 54.8 nM.

The compound `Fc1cccnc1O/N=C1/C=C(C#Cc2ccccn2)CCC1` returned a Ki in data set [1] of 4.01 nM.

In data set [1], `CO/N=C1/C=C(C#Cc2ccccn2)CCC1` had a Ki of 2.2 nM.

In data set [1], `Cc1cccc(C#CC2=C/C(=N/OCCOCCF)CCC2)n1` displayed a Ki of 26.8 nM. The compound also yielded a logP at 0.25 h in data set [4] of 2.1.

As for `CO/N=C1/C=C(C#Cc2cccnc2)CCC1`, the Ki in data set [1] came out at 252 nM.

In turn, `Fc1cccc(O/N=C2\C=C(C#Cc3ccccn3)CCC2)n1` returned a Ki in data set [1] of 44 nM.

In the case of `FCCCOCO/N=C1/C=C(C#Cc2ccccn2)CCC1`, the affinity in data set [1], expressed as Ki, was 5.42 nM.

For the compound `N#Cc1ccc(O/N=C2\C=C(C#Cc3ccccn3)CCC2)cc1F`, in data set [1], affinity was put at a Ki of 49.8 nM.

`N#Cc1ccc(F)cc1O/N=C1/C=C(C#Cc2ccccn2)CCC1`: the Ki in data set [1] amounted to 73.4 nM.

As to `CO/N=C1/C=C(C#Cc2cccc(C)n2)CCC1`, affinity in data set [1] was put at a Ki of 4.4 nM. Besides, in data set [4], the logP at 0.25 h was 2.4.

As to `[18F]CCOCCO/N=C1/C=C(C#Cc2ccccn2)CCC1`, the Kd in data set [5] came out at 13.7 nM; in data set [6], 0.6 nM.

With `Cc1cccc(C#CC2=C/C(=N/Oc3cccc(F)n3)CCC2)n1`, in data set [1], affinity was put at a Ki of 46.8 nM.

Consider `FCCOCO/N=C1/C=C(C#Cc2ccccn2)CCC1`, for which the inhibitory constant (Ki) in data set [1] came out at 8.41 nM.

Regarding `Fc1cccc(O/N=C2/C=C(C#Cc3ccccn3)CCC2)n1`, the Ki in data set [1] stood at 9.15 nM.

In the case of `N#Cc1ccc(O/N=C2/C=C(C#Cc3ccccn3)CCC2)cc1F`, the Ki in data set [1] turned out to be 56.1 nM.
